Laboratory results taken from patent US20260232767A1, “INTERLEUKIN-23 RECEPTOR ANTAGONIST PEPTIDES FOR USE IN THE TREATMENT OF PSORIASIS” (Janssen Pharmaceutica NV, priority 2023, published 2026).

Tested on: subjects with moderate-to-severe plaque psoriasis
Experiment: PASI response, Example 2 long-term extension to Week 52
Type: in vivo, human
Details: for Change from Baseline in PASI Total Score, LSMean: MMRM model
Source text: Described below is a multicenter, long-term extension (LTE), double-blind, dose-ranging, parallel group interventional study in participants from Example 1 to evaluate the long-term efficacy and safety of the hydrochloride salt of the compound of Formula (I) for the treatment of moderate-to-severe plaque psoriasis. Patients from Example 1 continued to receive the same dose of the compound of Formula (I) for an additional 36-week treatment period with a 4-week safety follow up period after the last administration of the compound of Formula (I). Patients randomized to placebo in Example 1 received the compound of Formula (I) at a dose of 100 mg QD starting at Week 16 of Example 1 (FIG. 21).
The primary efficacy endpoint is the proportion of participants achieving a PASI 75 response at Week 52, defined as at least a […] reduction from baseline PASI of Example 1. For primary analysis, composite strategy (non-responder imputation) was applied to address intercurrent event #1 (Discontinuation of study intervention due to lack of efficacy or due to an AE of worsening of psoriasis) and […] (initiation of a protocol-prohibited medication or therapy that could improve psoriasis); treatment policy strategy (observed data) was applied to intercurrent event #3 (Discontinuation of study intervention due to other reasons). Participants with missing data after application of ICEs are considered as non-responders.
Since there was no control arm (after week 16), in this primary analysis, only the proportion of participants who achieved a PASI75 response and its […] confidence interval at Week 52 were summarized for each intervention group.

[1] = 50 mg QD, Week 52, non-responder imputation

Compound: CC(=O)NCCCC[C@@H]1NC(=O)[C@H](Cc2c[nH]c3c(C)cccc23)NC(=O)[C@H]([C@@H](C)O)NC(=O)[C@H](CC(N)=O)NC(=O)[C@@H](NC(C)=O)C(C)(C)SSC(C)(C)[C@@H](C(=O)N[C@@H](Cc2ccc(OCCN)cc2)C(=O)N[C@@H](Cc2ccc3ccccc3c2)C(=O)NC2(C(=O)N[C@@H](CCC(=O)O)C(=O)N[C@@H](CC(N)=O)C(=O)N[C@@H](Cc3cccnc3)C(=O)N(C)CC(N)=O)CCOCC2)NC1=O [IL-23 receptor antagonist peptide, Ac-[Pen]*-N-T-[W(7-Me)]-[Lys(Ac)]-[Pen]*-Phe[4-(2-aminoethoxy)]-[2-Nal]-[THP]-E-N-[3-Pal]-Sarc-NH2 (*[Pen]-[Pen]* formdisulfidebond)]
- Change from Baseline in PASI Total Score, Median (50 mg QD, Week 16): −14.90
- Change from Baseline in PASI Total Score, LSMean (50 mg QD, Week 16): −14.4
- Change from Baseline in PASI Total Score, Mean (50 mg QD, Week 20): −14.92
- Change from Baseline in PASI Total Score, Median (50 mg QD, Week 20): −15.10
- Change from Baseline in PASI Total Score, LSMean (50 mg QD, Week 20): −14.7
- Change from Baseline in PASI Total Score, Mean (50 mg QD, Week 24): −15.10
- Change from Baseline in PASI Total Score, Median (50 mg QD, Week 24): −15.70
- Change from Baseline in PASI Total Score, LSMean (50 mg QD, Week 24): −14.9
- Change from Baseline in PASI Total Score, Mean (50 mg QD, Week 28): −14.75
- Change from Baseline in PASI Total Score, Median (50 mg QD, Week 28): −15.50
- Change from Baseline in PASI Total Score, LSMean (50 mg QD, Week 28): −14.6
- Change from Baseline in PASI Total Score, Mean (50 mg QD, Week 32): −14.88
- Change from Baseline in PASI Total Score, Median (50 mg QD, Week 32): −15.80
- Change from Baseline in PASI Total Score, LSMean (50 mg QD, Week 32): −14.6
- Change from Baseline in PASI Total Score, Mean (50 mg QD, Week 40): −14.33
- Change from Baseline in PASI Total Score, Median (50 mg QD, Week 40): −15.45
- Change from Baseline in PASI Total Score, LSMean (50 mg QD, Week 40): −14.2
- Change from Baseline in PASI Total Score, Mean (50 mg QD, Week 52): −14.45
- Change from Baseline in PASI Total Score, Median (50 mg QD, Week 52): −15.80
- Subjects achieving PASI 75 (50 mg QD, Week 52): 30 (69.8%)
- Change from Baseline in PASI Total Score, LSMean (50 mg QD, Week 52): −14.3
- Subjects achieving 100% Improvement at Week 52 (PASI) [1]: (20.9%)
- Subjects achieving ≥75% Improvement at Week 52 (PASI 75 Response) [1]: 30 (69.8%)
- Subjects achieving ≥90% Improvement at Week 52 (PASI) [1]: (41.9%)
- Change from Baseline in PASI Total Score, Mean (100 mg BID, Week 1): −3.25
- Change from Baseline in PASI Total Score, Median (100 mg BID, Week 1): −1.20
- Change from Baseline in PASI Total Score, LSMean (100 mg BID, Week 1): −2.9
- Change from Baseline in PASI Total Score, Mean (100 mg BID, Week 2): 6.07
- Change from Baseline in PASI Total Score, Median (100 mg BID, Week 2): −4.85
- Change from Baseline in PASI Total Score, LSMean (100 mg BID, Week 2): −5.7
- Change from Baseline in PASI Total Score, Mean (100 mg BID, Week 4): −10.71
- Change from Baseline in PASI Total Score, Median (100 mg BID, Week 4): −9.70
- Change from Baseline in PASI Total Score, LSMean (100 mg BID, Week 4): −10.0
- Change from Baseline in PASI Total Score, Mean (100 mg BID, Week 8): −14.66
- Change from Baseline in PASI Total Score, Median (100 mg BID, Week 8): −13.30
- Change from Baseline in PASI Total Score, LSMean (100 mg BID, Week 8): −13.8
- Change from Baseline in PASI Total Score, Mean (100 mg BID, Week 12): −16.77
- Change from Baseline in PASI Total Score, Median (100 mg BID, Week 12): −17.05
- Change from Baseline in PASI Total Score, LSMean (100 mg BID, Week 12): −15.9
- Change from Baseline in PASI Total Score, Mean (100 mg BID, Week 16): −17.44
- Change from Baseline in PASI Total Score, Median (100 mg BID, Week 16): −17.40
- Change from Baseline in PASI Total Score, LSMean (100 mg BID, Week 16): −16.5
- Change from Baseline in PASI Total Score, Mean (100 mg BID, Week 20): −17.83
- Change from Baseline in PASI Total Score, Median (100 mg BID, Week 20): −17.40
- Change from Baseline in PASI Total Score, LSMean (100 mg BID, Week 20): −17.0
- Change from Baseline in PASI Total Score, Mean (100 mg BID, Week 24): −17.99
- Change from Baseline in PASI Total Score, Median (100 mg BID, Week 24): −17.80
- Change from Baseline in PASI Total Score, LSMean (100 mg BID, Week 24): −17.1
- Change from Baseline in PASI Total Score, Mean (100 mg BID, Week 28): −17.96
- Change from Baseline in PASI Total Score, Median (100 mg BID, Week 28): −17.75
- Change from Baseline in PASI Total Score, LSMean (100 mg BID, Week 28): −17.2
- Change from Baseline in PASI Total Score, Mean (100 mg BID, Week 32): −18.37
- Change from Baseline in PASI Total Score, Median (100 mg BID, Week 32): −18.20
- Change from Baseline in PASI Total Score, LSMean (100 mg BID, Week 32): −17.3
- Change from Baseline in PASI Total Score, Mean (100 mg BID, Week 40): −18.30
- Change from Baseline in PASI Total Score, Median (100 mg BID, Week 40): −18.30
- Change from Baseline in PASI Total Score, LSMean (100 mg BID, Week 40): −17.4
- Change from Baseline in PASI Total Score, Mean (100 mg BID, Week 52): −18.46
- Change from Baseline in PASI Total Score, Median (100 mg BID, Week 52): −18.60
- Subjects achieving PASI 75 (100 mg BID, Week 52): 32 (76.2%)
- Change from Baseline in PASI Total Score, LSMean (100 mg BID, Week 52): −17.4
- Subjects achieving ≥75% Improvement at Week 52 (PASI 75 Response) (100 mg BID, Week 52, non-responder imputation): 32 (76.2%)
- Change from Baseline in PASI Total Score, Mean (100 mg QD, Week 1): −2.60
- Change from Baseline in PASI Total Score, Median (100 mg QD, Week 1): −1.10
- Change from Baseline in PASI Total Score, LSMean (100 mg QD, Week 1): −2.8
- Change from Baseline in PASI Total Score, Mean (100 mg QD, Week 2): −5.13
- Change from Baseline in PASI Total Score, Median (100 mg QD, Week 2): −3.25
- Change from Baseline in PASI Total Score, LSMean (100 mg QD, Week 2): −5.3
- Change from Baseline in PASI Total Score, Mean (100 mg QD, Week 4): −8.39
- Change from Baseline in PASI Total Score, Median (100 mg QD, Week 4): −7.30
- Change from Baseline in PASI Total Score, LSMean (100 mg QD, Week 4): −8.7
- Change from Baseline in PASI Total Score, Mean (100 mg QD, Week 8): −12.04
- Change from Baseline in PASI Total Score, Median (100 mg QD, Week 8): −11.30
- Change from Baseline in PASI Total Score, LSMean (100 mg QD, Week 8): −12.5
- Change from Baseline in PASI Total Score, Mean (100 mg QD, Week 12): −13.70
- Change from Baseline in PASI Total Score, Median (100 mg QD, Week 12): −13.60
- Change from Baseline in PASI Total Score, LSMean (100 mg QD, Week 12): −14.0
- Change from Baseline in PASI Total Score, Mean (100 mg QD, Week 16): −13.99
- Change from Baseline in PASI Total Score, Median (100 mg QD, Week 16): −14.75
- Change from Baseline in PASI Total Score, LSMean (100 mg QD, Week 16): −14.4
- Change from Baseline in PASI Total Score, Mean (100 mg QD, Week 20): −14.57
- Change from Baseline in PASI Total Score, Median (100 mg QD, Week 20): −14.10
- Change from Baseline in PASI Total Score, LSMean (100 mg QD, Week 20): −15.1
- Change from Baseline in PASI Total Score, Mean (100 mg QD, Week 24): −15.27
- Change from Baseline in PASI Total Score, Median (100 mg QD, Week 24): −14.90
- Change from Baseline in PASI Total Score, LSMean (100 mg QD, Week 24): −15.6
- Change from Baseline in PASI Total Score, Mean (100 mg QD, Week 28): −16.11
- Change from Baseline in PASI Total Score, Median (100 mg QD, Week 28): −15.00
- Change from Baseline in PASI Total Score, LSMean (100 mg QD, Week 28): −15.8
- Change from Baseline in PASI Total Score, Mean (100 mg QD, Week 32): −16.21
- Change from Baseline in PASI Total Score, Median (100 mg QD, Week 32): −15.10
- Change from Baseline in PASI Total Score, LSMean (100 mg QD, Week 32): −16.2
- Change from Baseline in PASI Total Score, Mean (100 mg QD, Week 40): −15.95
- Change from Baseline in PASI Total Score, Median (100 mg QD, Week 40): −15.00
- Change from Baseline in PASI Total Score, LSMean (100 mg QD, Week 40): −15.7
- Change from Baseline in PASI Total Score, Mean (100 mg QD, Week 52): −15.81
- Change from Baseline in PASI Total Score, Median (100 mg QD, Week 52): −15.00
